According to PubChem BioAssay (NCI):
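Growth conditions: 96-well plates. Treatment: test compound, 48 hours, 5 concentrations. Analysis: linear interpolation between bracketing concentrations; unreached endpoints set to highest concentration. The concentration for full growth arrest is given as TGI.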

How the values were obtained:
Assay in all cases: DTP human tumour cell line panel, 48 h
HOP-92 NSCLC = tested on: HOP-92 NSCLC
HCT-15 colon = tested on: HCT-15 colon
HCC-2998 colon = tested on: HCC-2998 colon
CCRF-CEM leukemia = tested on: CCRF-CEM leukemia
SK-MEL-2 melanoma = tested on: SK-MEL-2 melanoma
HOP-62 NSCLC = tested on: HOP-62 NSCLC
SK-MEL-5 melanoma = tested on: SK-MEL-5 melanoma
MOLT-4 leukemia = tested on: MOLT-4 leukemia
SNB-19 CNS = tested on: SNB-19 CNS
SNB-75 CNS = tested on: SNB-75 CNS
HT29 colon = tested on: HT29 colon
RXF 393 renal = tested on: RXF 393 renal
LOX IMVI melanoma = tested on: LOX IMVI melanoma
SK-OV-3 ovarian = tested on: SK-OV-3 ovarian
SF-295 CNS = tested on: SF-295 CNS
KM12 colon = tested on: KM12 colon
ACHN renal = tested on: ACHN renal
NCI/ADR-RES ovarian = tested on: NCI/ADR-RES ovarian
A549 NSCLC = tested on: A549 NSCLC
UACC-62 melanoma = tested on: UACC-62 melanoma
OVCAR-4 ovarian = tested on: OVCAR-4 ovarian
OVCAR-3 ovarian = tested on: OVCAR-3 ovarian
MALME-3M melanoma = tested on: MALME-3M melanoma
RPMI-8226 leukemia = tested on: RPMI-8226 leukemia
NCI-H226 lung = tested on: NCI-H226 lung
UACC-257 melanoma = tested on: UACC-257 melanoma
COLO 205 colon = tested on: COLO 205 colon
CAKI-1 renal = tested on: CAKI-1 renal
MDA-N = tested on: MDA-N
SN12C renal = tested on: SN12C renal
U251 CNS = tested on: U251 CNS
TK-10 renal = tested on: TK-10 renal
NCI-H23 lung = tested on: NCI-H23 lung
EKVX NSCLC = tested on: EKVX NSCLC
NCI-H522 lung = tested on: NCI-H522 lung
T-47D breast = tested on: T-47D breast
NCI-H460 lung = tested on: NCI-H460 lung
SF-268 CNS = tested on: SF-268 CNS
DU-145 prostate = tested on: DU-145 prostate
BT-549 breast = tested on: BT-549 breast
MCF7 breast = tested on: MCF7 breast
MDA-MB-231 breast = tested on: MDA-MB-231 breast
HL-60(TB) leukemia = tested on: HL-60(TB) leukemia
SK-MEL-28 melanoma = tested on: SK-MEL-28 melanoma
OVCAR-5 ovarian = tested on: OVCAR-5 ovarian
PC-3 prostate = tested on: PC-3 prostate
HS 578T breast = tested on: HS 578T breast
IGROV1 ovarian = tested on: IGROV1 ovarian
SR leukemia = tested on: SR leukemia
A498 renal = tested on: A498 renal
K-562 leukemia = tested on: K-562 leukemia
OVCAR-8 ovarian = tested on: OVCAR-8 ovarian
M14 melanoma = tested on: M14 melanoma
SW-620 colon = tested on: SW-620 colon
MDA-MB-435 = tested on: MDA-MB-435
UO-31 renal = tested on: UO-31 renal
786-0 renal = tested on: 786-0 renal
HCT-116 colon = tested on: HCT-116 colon
SF-539 CNS = tested on: SF-539 CNS

## Fc1ccc(C(OCCN2CCN(CCCc3ccccc3)CC2)c2ccc(F)cc2)cc1
HOP-92 NSCLC
  TGI: 11.6 µM
HCT-15 colon
  TGI: 13.4 µM
HCC-2998 colon
  TGI: 11.7 µM
CCRF-CEM leukemia
  TGI: > 100 µM
SK-MEL-2 melanoma
  TGI: 12.2 µM
HOP-62 NSCLC
  TGI: 17.7 µM
SK-MEL-5 melanoma
  TGI: 10.1 µM
MOLT-4 leukemia
  TGI: 19 µM
SNB-19 CNS
  TGI: 14.5 µM
SNB-75 CNS
  TGI: 16.4 µM
HT29 colon
  TGI: 12.3 µM
RXF 393 renal
  TGI: 11.3 µM
LOX IMVI melanoma
  TGI: 15.6 µM
SK-OV-3 ovarian
  TGI: 18.9 µM
SF-295 CNS
  TGI: 15.2 µM
KM12 colon
  TGI: 17.1 µM
ACHN renal
  TGI: 17.4 µM
NCI/ADR-RES ovarian
  TGI: 12.6 µM
A549 NSCLC
  TGI: 14 µM
UACC-62 melanoma
  TGI: 21.4 µM
OVCAR-4 ovarian
  TGI: 15.8 µM
OVCAR-3 ovarian
  TGI: 15.9 µM
MALME-3M melanoma
  TGI: 17 µM
RPMI-8226 leukemia
  TGI: 8.63 µM
NCI-H226 lung
  TGI: 13.9 µM
UACC-257 melanoma
  TGI: 8.62 µM
COLO 205 colon
  TGI: 10.1 µM
CAKI-1 renal
  TGI: 13.5 µM
MDA-N
  TGI: 14.3 µM
SN12C renal
  TGI: 15.8 µM
U251 CNS
  TGI: 14.3 µM
TK-10 renal
  TGI: 18.7 µM
NCI-H23 lung
  TGI: 15.3 µM
EKVX NSCLC
  TGI: 15.2 µM
NCI-H522 lung
  TGI: 12.4 µM
T-47D breast
  TGI: 19.3 µM
NCI-H460 lung
  TGI: 15.3 µM
SF-268 CNS
  TGI: 14.6 µM
DU-145 prostate
  TGI: 19.5 µM
BT-549 breast
  TGI: 19.3 µM
MCF7 breast
  TGI: 18.9 µM
MDA-MB-231 breast
  TGI: 11.3 µM
HL-60(TB) leukemia
  TGI: 16 µM
SK-MEL-28 melanoma
  TGI: 23.6 µM
OVCAR-5 ovarian
  TGI: 15.7 µM
PC-3 prostate
  TGI: 12 µM
HS 578T breast
  TGI: 10.1 µM
IGROV1 ovarian
  TGI: 22.2 µM
SR leukemia
  TGI: 10 µM
A498 renal
  TGI: 19.7 µM
K-562 leukemia
  TGI: 16.1 µM
OVCAR-8 ovarian
  TGI: 13 µM
M14 melanoma
  TGI: 11.3 µM
SW-620 colon
  TGI: > 50.6 µM
MDA-MB-435
  TGI: 14 µM
UO-31 renal
  TGI: 12 µM

## COC(=O)C1=C(O)C(C(=O)OC)C2CC(=O)CC1C2(C)C (centres undefined)
HOP-92 NSCLC
  TGI: > 100 µM
HCT-15 colon
  TGI: > 100 µM
HCC-2998 colon
  TGI: > 100 µM
CCRF-CEM leukemia
  TGI: > 100 µM
SK-MEL-2 melanoma
  TGI: > 100 µM
HOP-62 NSCLC
  TGI: > 100 µM
SK-MEL-5 melanoma
  TGI: > 100 µM
MOLT-4 leukemia
  TGI: > 100 µM
SNB-19 CNS
  TGI: > 100 µM
SNB-75 CNS
  TGI: > 100 µM
HT29 colon
  TGI: > 100 µM
RXF 393 renal
  TGI: > 100 µM
SK-OV-3 ovarian
  TGI: > 100 µM
SF-295 CNS
  TGI: > 100 µM
KM12 colon
  TGI: > 100 µM
ACHN renal
  TGI: > 100 µM
NCI/ADR-RES ovarian
  TGI: > 100 µM
A549 NSCLC
  TGI: > 100 µM
UACC-62 melanoma
  TGI: > 100 µM
OVCAR-4 ovarian
  TGI: > 100 µM
OVCAR-3 ovarian
  TGI: > 100 µM
MALME-3M melanoma
  TGI: > 100 µM
RPMI-8226 leukemia
  TGI: > 100 µM
NCI-H226 lung
  TGI: > 100 µM
UACC-257 melanoma
  TGI: > 100 µM
COLO 205 colon
  TGI: > 100 µM
CAKI-1 renal
  TGI: > 100 µM
786-0 renal
  TGI: > 100 µM
MDA-N
  TGI: > 100 µM
SN12C renal
  TGI: > 100 µM
U251 CNS
  TGI: > 100 µM
TK-10 renal
  TGI: > 100 µM
NCI-H23 lung
  TGI: > 100 µM
EKVX NSCLC
  TGI: > 100 µM
NCI-H522 lung
  TGI: > 100 µM
T-47D breast
  TGI: > 100 µM
NCI-H460 lung
  TGI: > 100 µM
HCT-116 colon
  TGI: > 100 µM
SF-268 CNS
  TGI: > 100 µM
DU-145 prostate
  TGI: > 100 µM
BT-549 breast
  TGI: > 100 µM
MCF7 breast
  TGI: > 100 µM
MDA-MB-231 breast
  TGI: > 100 µM
SF-539 CNS
  TGI: > 100 µM
HL-60(TB) leukemia
  TGI: > 100 µM
SK-MEL-28 melanoma
  TGI: > 100 µM
OVCAR-5 ovarian
  TGI: > 100 µM
PC-3 prostate
  TGI: > 100 µM
HS 578T breast
  TGI: > 100 µM
IGROV1 ovarian
  TGI: > 100 µM
SR leukemia
  TGI: > 100 µM
A498 renal
  TGI: > 100 µM
K-562 leukemia
  TGI: > 100 µM
OVCAR-8 ovarian
  TGI: > 100 µM
M14 melanoma
  TGI: > 100 µM
SW-620 colon
  TGI: > 100 µM
MDA-MB-435
  TGI: > 100 µM
UO-31 renal
  TGI: > 100 µM
